Experiment [1] concerns the target T1, 5-HT2C receptor (Homo sapiens, UniProt P28335, DEL255-298/G251D/H250E/H252N/INS299[…]/L248D/M247A/M300L/T253W).
T1 construct: the N- and C-terminals were truncated by 39 and 65 residues, respectively; FLAG (N); PreScission protease site + 10× His (C); made in house; host or cells: Spodoptera frugiperda (Sf9), baculovirus
Type of experiment: binding. As to conditions: CPM assay, comparing to apo-protein.

The next experiment has as its target T2, 5-HT2A receptor (Homo sapiens, UniProt P28223).
T2 construct: expressed in transfected cells; host or cells: HEK 293T, stably transfected
Put plainly: Ca2+ mobilization assay (Fluo-4, FLIPR), HEK 293T cells stably transfected with 5-HT2A. As to conditions: agonist mode, up to 30,000 nmol/L. Type of experiment: cell-based. The text has this: (§1) The 5-HT2C receptor mainly couples to Gαq proteins. The activated 5-HT2C receptor transmits the signals from the extracellular to the intercellular side using DAG/IP3 (diacyl glycerol/inositol 1,4,5-trisphosphate) as its second massagers (Hannon and Hoyer [2008]). IP3 stimulates the endoplasmic reticulum to release calcium ions into the cytoplasm, which causes the increase of calcium concentration in cytosol. Therefore, calcium mobilization assay is commonly applied to understand how unknown small molecule ligands of 5-HT2C receptor modulate cellular signal transductions. In this case, Fluo-4 Direct dye was used as a fluorescence indicator to detect calcium flux in G protein-coupled receptor expressed cells. The fold of maximum response over average of basal reading is plotted against compound concentration to determine the potency of the compounds (Fig. 3). […]. […] After the dye loaded, cells were placed in a FLIPR^TETRA fluorescence imaging plate reader (Molecular Devices); drug dilutions, prepared at 3× final concentration in FLIPR buffer and aliquotted into 384-well plates, were also added to the FLIPR^TETRA. The fluidics module and plate reader of the FLIPR^TETRA were programmed to read baseline fluorescence for 10 s (1 read/s), then to add 10 μl of drug/well and to read for 6 min (1 read/s). […]

For the next experiment, the target named is T3, 5-HT2B receptor (Homo sapiens, UniProt P41595).
T3 construct: expressed in transfected cells; host or cells: HEK 293T, stably transfected
T3 sequence (P41595 whole entry): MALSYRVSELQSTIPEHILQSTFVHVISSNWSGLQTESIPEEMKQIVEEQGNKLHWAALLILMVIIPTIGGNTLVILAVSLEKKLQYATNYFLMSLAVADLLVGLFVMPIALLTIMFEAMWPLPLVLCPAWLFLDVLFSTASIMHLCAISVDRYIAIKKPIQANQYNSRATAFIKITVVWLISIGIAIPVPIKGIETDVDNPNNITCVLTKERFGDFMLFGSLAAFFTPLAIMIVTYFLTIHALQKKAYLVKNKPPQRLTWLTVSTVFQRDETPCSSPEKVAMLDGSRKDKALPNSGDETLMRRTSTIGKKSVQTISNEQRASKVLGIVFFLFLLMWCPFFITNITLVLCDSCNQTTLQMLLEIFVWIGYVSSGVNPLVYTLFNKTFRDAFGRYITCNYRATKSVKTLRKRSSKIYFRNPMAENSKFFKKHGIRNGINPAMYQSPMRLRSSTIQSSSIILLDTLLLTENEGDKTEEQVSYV
Description: Ca2+ mobilization assay (Fluo-4, FLIPR), HEK 293T cells stably transfected with 5-HT2B. It counts as cell-based. The conditions noted are these: agonist mode, up to 30,000 nmol/L.
From the text: as §1
For orientation: Calcium assays in cells follow changes in intracellular calcium, usually with a dye or a luminescent sensor.

Experiment [2] has as its target T4, 5-HT2C receptor (Homo sapiens, UniProt P28335).
T4 construct: expressed in transfected cells; host or cells: HEK 293T, stably transfected
T4 sequence (P28335 33-458): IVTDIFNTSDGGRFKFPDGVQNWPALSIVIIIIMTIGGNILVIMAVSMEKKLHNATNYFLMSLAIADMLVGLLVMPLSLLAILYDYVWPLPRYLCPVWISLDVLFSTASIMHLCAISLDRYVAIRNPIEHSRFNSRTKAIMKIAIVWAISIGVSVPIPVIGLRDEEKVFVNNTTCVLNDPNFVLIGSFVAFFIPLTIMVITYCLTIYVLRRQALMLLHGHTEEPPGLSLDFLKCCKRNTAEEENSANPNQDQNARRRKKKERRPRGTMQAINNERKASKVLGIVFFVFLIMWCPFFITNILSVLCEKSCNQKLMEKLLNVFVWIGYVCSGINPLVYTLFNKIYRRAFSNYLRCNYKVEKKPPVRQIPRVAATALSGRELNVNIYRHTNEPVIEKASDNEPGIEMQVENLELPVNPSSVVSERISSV
Put plainly: Ca2+ mobilization assay (Fluo-4, FLIPR), HEK 293T cells stably transfected with 5-HT2C. It counts as cell-based. The text has this:
The 5-HT2C receptor mainly couples to Gαq proteins. The activated 5-HT2C receptor transmits the signals from the extracellular to the intercellular side using DAG/IP3 (diacyl glycerol/inositol 1,4,5-trisphosphate) as its second massagers (Hannon and Hoyer [2008]). IP3 stimulates the endoplasmic reticulum to release calcium ions into the cytoplasm, which causes the increase of calcium concentration in cytosol. Therefore, calcium mobilization assay is commonly applied to understand how unknown small molecule ligands of 5-HT2C receptor modulate cellular signal transductions. In this case, Fluo-4 Direct dye was used as a fluorescence indicator to detect calcium flux in G protein-coupled receptor expressed cells. The fold of maximum response over average of basal reading is plotted against compound concentration to determine the potency of the compounds (Fig. 3). […]. HEK 293T cells stably transfected with 5-HT2A/2B/2C receptor were seeded in 384-well plates at a density of 15,000 cells/well in DMEM containing 1% dialyzed FBS 8 h before the calcium flux assay. After removing medium, cells were then incubated (20 μl/well) for 1 h at 37 °C with Fluo-4 Direct dye (Invitrogen) reconstituted in FLIPR buffer (1× HBSS, 2.5 mmol/L probenecid, and 20 mmol/L HEPES, pH 7.4). After the dye loaded, cells were placed in a FLIPR^TETRA fluorescence imaging plate reader (Molecular Devices); drug dilutions, prepared at 3× final concentration in FLIPR buffer and aliquotted into 384-well plates, were also added to the FLIPR^TETRA. The fluidics module and plate reader of the FLIPR^TETRA were programmed to read baseline fluorescence for 10 s (1 read/s), then to add 10 μl of drug/well and to read for 6 min (1 read/s). Fluorescence in each well was normalized to the average of the first 10 reads (i.e., baseline fluorescence). Then, the maximum-fold increase, which occurred within 60 s after drug addition, over baseline fluorescence elicited by vehicle or drug was determined. […]

Experiment [3] has as its system cortical pyramidal neurons. Put plainly: Whole-cell patch clamp recording of spontaneous synaptic current (SPSC) in brain slices. Type of experiment: cell-based. The conditions noted are these: 10 μmol/L; mouse brain slices. As for the experimental part: 5-HT receptors play important roles in central and peripheral nervous systems. Malfunctions of these receptors have been linked to many neural disorders such as depression and psychosis. The effect of (–)-crebanine on changes in 5-HT induced synaptic transmission was evaluated by electrophysiological recording of mouse brain slices (Jang et al. [2012]). The spontaneous synaptic current (SPSC) of cortical pyramidal neurons was recorded in whole cell mode.
Cortical slices from ICR mouse of both genders (15–21 days) were prepared for electrophysiological recording. In brief, the animals were decapitated and brains were placed in cold sucrose artificial cerebrospinal fluid (sucrose-ASCF, in mmol/L: sucrose 213, KCl 2.5, NaH2PO4 1.25, NaHCO3 26, D-glucose 10, MgSO4 2, CaCl2 2, pH 7.4, 0–4 °C, saturated with 95% O2 and 5% CO2). The brains were cut into 280 or 300 μm slices with a vibratome (Leica VT1200S, Germany); slices were then incubated with ACSF (in mmol/L: NaCl 126, KCl 2.5, NaH2PO4 1.25, NaHCO3 26, D-glucose 25, MgSO4 2, CaCl2 2, pH 7.4, saturated with 95% O2 and 5% CO2) at room temperature for 1 h.
A whole-cell patch clamp technique was used. […] Activity of cortical pyramidal neurons was recorded using an amplifier (HEKA EPC 10 USB, Germany) in the voltage clamp mode. […]
On the technique in general: In patch-clamp work, channel activity is measured electrically.

Experiment [4] deals with T1, 5-HT2C receptor. Type of experiment: binding.

Molecules are shown by their SMILES.

T1 sequence (P28335 with tags, fused parts or gaps with the stated changes limits assumed): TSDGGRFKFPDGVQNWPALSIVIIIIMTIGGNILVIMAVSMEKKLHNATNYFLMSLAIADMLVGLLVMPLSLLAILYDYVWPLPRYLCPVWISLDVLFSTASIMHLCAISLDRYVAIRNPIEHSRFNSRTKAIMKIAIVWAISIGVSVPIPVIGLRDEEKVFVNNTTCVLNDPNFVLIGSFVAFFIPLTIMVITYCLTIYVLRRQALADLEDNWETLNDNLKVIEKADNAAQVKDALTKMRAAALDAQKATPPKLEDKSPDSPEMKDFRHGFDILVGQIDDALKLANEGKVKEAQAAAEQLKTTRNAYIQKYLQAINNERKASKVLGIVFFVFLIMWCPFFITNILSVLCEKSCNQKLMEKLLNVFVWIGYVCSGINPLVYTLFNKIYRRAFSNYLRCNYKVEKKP
T2 sequence (P28223 whole entry): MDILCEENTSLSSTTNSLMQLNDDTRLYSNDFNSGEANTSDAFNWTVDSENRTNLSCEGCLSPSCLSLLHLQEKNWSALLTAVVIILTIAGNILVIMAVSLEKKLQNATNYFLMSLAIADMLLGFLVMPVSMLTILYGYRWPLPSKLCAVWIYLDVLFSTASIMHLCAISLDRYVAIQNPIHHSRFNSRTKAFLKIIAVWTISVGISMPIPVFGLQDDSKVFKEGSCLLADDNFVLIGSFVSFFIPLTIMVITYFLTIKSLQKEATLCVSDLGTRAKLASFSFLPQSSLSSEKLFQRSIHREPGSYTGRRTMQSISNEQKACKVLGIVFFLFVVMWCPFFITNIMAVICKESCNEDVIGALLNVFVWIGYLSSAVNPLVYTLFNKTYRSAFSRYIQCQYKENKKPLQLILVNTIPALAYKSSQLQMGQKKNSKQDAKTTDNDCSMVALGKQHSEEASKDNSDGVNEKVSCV

With `COc1cc2c(cc1OC)-c1c3c(cc4c1[C@@H](C2)N(C)CC4)OCO3` [Compound 2, (–)-dicentrine], on 5-HT2C receptor [1], the “thermal shift value (∆Tm)” value is less than 1.00 °C.

Take `COc1ccc2c(c1O)-c1c(O)c(OC)cc3c1[C@H](C2)[N+](C)(C)CC3` [Compound 3, (+)-magnoflorine]: the “thermal shift value (∆Tm)” value at 5-HT2C receptor [1] is less than 1.00 °C.

For the molecule `COc1cc2cc3c4c(cc(OC)c(OC)c4c2cc1OC)CCN3C` [Compound 4, didehydroglaucine], the “thermal shift value (∆Tm)” value on 5-HT2C receptor [1] is less than 1.00 °C.

On to `COc1ccc2c(c1O)-c1c(OC)c(OC)cc3c1[C@H](C2)N(C)CC3` [Compound 5, (+)-isocorydine], for which the receptor activation entry on 5-HT2A receptor and on 5-HT2B receptor was “inactive” throughout. Besides, the EC50 (as a rule, the concentration at which the effect is half-maximal) at 5-HT2C receptor [2] worked out at 2080 nM. Further, the Emax (usually the size of the effect at its maximum, as opposed to the concentration needed) at 5-HT2C receptor [2] (HEK-293T) is 16.6%.

In the case of `NCCc1c[nH]c2ccc(O)cc12` [Compound 5-HT, 5-hydroxytryptamine, reference compound], in experiment [3], the “effect on SPSC” value was “amplified”.

Take `Cc1nc2sccn2c(=O)c1CCN1CCC(=C(c2ccc(F)cc2)c2ccc(F)cc2)CC1` [Ritanserin, ritanserin, reference compound]: on 5-HT2C receptor [4], the S/C is listed as 8.39 ± 1.80 and the “affinity (in words)” value is reported as “high nmol/L range”.

The values above are taken from article PMC5860131, “Identification of natural products as novel ligands for the human 5-HT2C receptor” (Biophysics Reports, 2018).
